Experimental data: patent publication US20260022142A1, “MACROCYCLIC IMMUNOMODULATORS” (Bristol-Myers Squibb Company, priority 2022, published 2026)
Numbered stars: 1 amine (or outer) side, 2 acyl side, 3 side chain; on linkers, the order of the positions; unused ones are H or OH. Bridge positions count the residues as written; N and C are the ends. Square brackets hold non-standard residues; d marks the D form. Peptide text beside a SMILES is read from it. * marks the point of attachment. ξ: configuration not given here. Bip = N[C@@H](Cc1ccc(-c2ccccc2)cc1)C(=O)O; Phe(3-Me) = Cc1cccc(C[C@H](N)C(=O)O)c1; γGlu = O=C(O)[C@H](CCC(=O)[*:2])N[*:1]; Val(3-OH) = CC(C)(O)[C@H](N)C(=O)O; Cha = N[C@@H](CC1CCCCC1)C(=O)O; Thr(3ξ) = CC(O)[C@H](N)C(=O)O; 12Ado = NCCCCCCCCCCCC(=O)O; Carboxymethyl = O=C(O)C*; Orn = NCCC[C@H](N)C(=O)O; Aun = NCCCCCCCCCCC(=O)O; Dab = NCC[C@H](N)C(=O)O; Dap = NC[C@H](N)C(=O)O; AEEA = NCCOCCOCC(=O)O

Target: T1, PD-1/PD-L1 interaction (PE-labeled human PD-L1-Ig binding to Jurkat cell line over-expressing human PD-1) (Homo sapiens, UniProt Q15116)
T1 construct: expressed in transfected cells; host or cells: Jurkat
Test: Jurkat-PD-1 Cell Binding High-Content Screening Assay (CBA)
Assay type: cell-based
Settings: Jurkat cell line over-expressing human PD-1; PE-labeled PD-L1-Ig 20 nM final; read-out: Jurkat hPD1-PDL1 IC50
Procedure, shortened: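 Human PD-L1-Ig carrying a covalent PE label on its Ig tag serves as the probe, applied at 20 nM final to compound-treated (2 h, 37° C) Jurkat-hPD-1 cells in medium with 10% fetal calf serum. After one hour, fixation and nuclear staining precede high-content image analysis.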

T1 sequence (Q15116 25-288): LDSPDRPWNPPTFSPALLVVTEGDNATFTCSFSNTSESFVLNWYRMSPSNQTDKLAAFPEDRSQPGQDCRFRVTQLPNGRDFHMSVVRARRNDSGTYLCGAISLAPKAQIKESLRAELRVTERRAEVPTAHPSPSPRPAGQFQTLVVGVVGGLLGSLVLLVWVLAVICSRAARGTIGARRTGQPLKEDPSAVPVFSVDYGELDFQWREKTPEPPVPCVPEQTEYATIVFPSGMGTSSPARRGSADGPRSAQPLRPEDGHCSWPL

Compound | IC50
CC(=O)NCCCC[C@@H]1NC(=O)[C@H](Cc2ccc(-c3ccccc3)cc2)NC(=O)[C@H](Cc2ccc(O)cc2)NC(=O)[C@H](Cc2cccc(C)c2)NC(=O)[C@H](CC(=O)O)NC(=O)[C@H](Cc2ccc(OCC(=O)O)cc2)NC(=O)[C@H](CCN)NC(=O)CSC[C@@H](C(=O)N[C@@H](CCN)C(=O)N[C@@H](CO)C(=O)NCCCCCCCCCCCC(=O)O)NC(=O)[C@H](CCCCN)NC(=O)[C@H](C(C)O)NC(=O)[C@H](CC2CCCCC2)NC(=O)[C@H](CCN)NC(=O)[C@@H](CC(C)C)NC(=O)[C@H](CCCN)NC1=O (stereo partly drawn) [Compound 3637] ({CH2CO}-[Dab]Y(Carboxymethyl)D[Phe(3-Me)]Y[Bip]K(Ac)[Orn][dL][Dab][Cha][Thr(3ξ)]KC[Dab]S[12Ado]-OH; thioether N-14) | 0.0291 µM
CC(=O)NCCCC[C@@H]1NC(=O)[C@H](Cc2ccc(-c3ccccc3)cc2)NC(=O)[C@H](Cc2ccc(O)cc2)NC(=O)[C@H](Cc2cccc(C)c2)NC(=O)[C@H](CC(=O)O)NC(=O)[C@H](Cc2ccc(OCC(=O)O)cc2)NC(=O)[C@H](CCN)NC(=O)CSC[C@@H](C(=O)N[C@@H](CCCN)C(=O)N[C@@H](CO)C(=O)NCCCCCCCCCCC(=O)O)NC(=O)[C@H](CCC(=O)O)NC(=O)[C@H](C(C)O)NC(=O)[C@H](CC2CCCCC2)NC(=O)[C@H](CCN)NC(=O)[C@@H](CC(C)C)NC(=O)[C@H](CCCN)NC1=O (stereo partly drawn) [Compound 3638] ({CH2CO}-[Dab]Y(Carboxymethyl)D[Phe(3-Me)]Y[Bip]K(Ac)[Orn][dL][Dab][Cha][Thr(3ξ)]EC[Orn]S[Aun]-OH; thioether N-14) | 0.0709 µM
CC(=O)NCCCC[C@@H]1NC(=O)[C@H](Cc2ccc(-c3ccccc3)cc2)NC(=O)[C@H](CCNC(C)=O)NC(=O)[C@H](Cc2cccc(C)c2)NC(=O)[C@H](CC(=O)O)NC(=O)[C@H](Cc2ccc(OCC(=O)O)cc2)NC(=O)[C@H](Cc2ccc(OCC(=O)O)cc2)NC(=O)CSC[C@@H](C(=O)N[C@@H](CCN)C(=O)N[C@@H](CO)C(=O)NCCCCCCCCCCCC(=O)O)NC(=O)[C@H](Cc2cnc[nH]2)NC(=O)[C@H](C(C)O)NC(=O)[C@H](CC2CCCCC2)NC(=O)[C@H](CCN)NC(=O)[C@@H](CC(C)C)NC(=O)[C@H](CCCN)NC1=O (stereo partly drawn) [Compound 3646] ({CH2CO}-Y(Carboxymethyl)Y(Carboxymethyl)D[Phe(3-Me)][Dab](Ac)[Bip]K(Ac)[Orn][dL][Dab][Cha][Thr(3ξ)]HC[Dab]S[12Ado]-OH; thioether N-14) | 0.0947 µM
CC(C)C[C@H]1NC(=O)[C@H](CCCN)NC(=O)[C@H](C(C)C)NC(=O)[C@H](Cc2ccc(-c3ccccc3)cc2)NC(=O)[C@H](C(C)C)NC(=O)[C@H](Cc2c[nH]c3ccccc23)NC(=O)[C@H](CC(=O)O)NC(=O)[C@H](Cc2ccc(OCC(=O)O)cc2)NC(=O)[C@H](CN)NC(=O)CSC[C@@H](C(=O)N[C@@H](CCN)C(=O)NCCCCCCCCCCC(=O)O)NC(=O)[C@H](CN)NC(=O)[C@H](C(C)O)NC(=O)[C@H](CC2CCCCC2)NC(=O)[C@H](CCN)NC1=O (stereo partly drawn) [Compound 3647] ({CH2CO}-[Dap]Y(Carboxymethyl)DWV[Bip]V[Orn][dL][Dab][Cha][Thr(3ξ)][Dap]C[Dab][Aun]-OH; thioether N-14) | 0.0277 µM
CC(C)C[C@H]1NC(=O)[C@H](CCCN)NC(=O)[C@H](C(C)C)NC(=O)[C@H](Cc2ccc(-c3ccccc3)cc2)NC(=O)[C@H](C(C)C)NC(=O)[C@H](Cc2c[nH]c3ccccc23)NC(=O)[C@H](CC(=O)O)NC(=O)[C@H](Cc2ccc(OCC(=O)O)cc2)NC(=O)[C@H](CN)NC(=O)CSC[C@@H](C(=O)N[C@@H](CCN)C(=O)NCCCCCCCCCCC(=O)O)NC(=O)[C@H](CCCCN)NC(=O)[C@H](C(C)O)NC(=O)[C@H](CC2CCCCC2)NC(=O)[C@H](CCN)NC1=O (stereo partly drawn) [Compound 3648] ({CH2CO}-[Dap]Y(Carboxymethyl)DWV[Bip]V[Orn][dL][Dab][Cha][Thr(3ξ)]KC[Dab][Aun]-OH; thioether N-14) | 0.0215 µM

Further lines, results first:

IC50 | Compound
0.0209 µM | Cc1cccc(C[C@@H]2NC(=O)[C@H](CC(=O)O)NC(=O)[C@H](Cc3ccc(OCC(=O)O)cc3)NC(=O)[C@H](CCN)NC(=O)CSC[C@@H](C(=O)N[C@@H](CCN)C(=O)N[C@@H](CO)C(=O)NCCCCCCCCCCCC(=O)O)NC(=O)[C@H](CCCN)NC(=O)[C@H](C(C)O)NC(=O)[C@H](CC3CCCCC3)NC(=O)[C@H](CCN)NC(=O)[C@@H](CC(C)C)NC(=O)[C@H](CCCN)NC(=O)[C@H](Cc3ccc(OCC(=O)O)cc3)NC(=O)[C@H](Cc3ccc(-c4ccccc4)cc3)NC(=O)[C@H](Cc3ccc(OCC(=O)O)cc3)NC2=O)c1 (stereo partly drawn) [Compound 3636] ({CH2CO}-[Dab]Y(Carboxymethyl)D[Phe(3-Me)]Y(Carboxymethyl)[Bip]Y(Carboxymethyl)[Orn][dL][Dab][Cha][Thr(3ξ)][Orn]C[Dab]S[12Ado]-OH; thioether N-14)
0.0105 µM | Cc1cccc(C[C@@H]2NC(=O)[C@H](CC(=O)O)NC(=O)[C@H](Cc3ccc(OCC(=O)O)cc3)NC(=O)[C@H](CC(N)=O)NC(=O)CSC[C@@H](C(=O)N[C@@H](CCN)C(=O)NCCCCCCCCCCC(=O)O)NC(=O)[C@H](CO)NC(=O)[C@H](C(C)O)NC(=O)[C@H](CC3CCCCC3)NC(=O)[C@H](CCN)NC(=O)[C@@H](CC(C)C)NC(=O)[C@H](CCCN)NC(=O)[C@H](Cc3ccc(OCC(=O)O)cc3)NC(=O)[C@H](Cc3ccc(-c4ccccc4)cc3)NC(=O)[C@H](Cc3ccc(OCC(=O)O)cc3)NC2=O)c1 (stereo partly drawn) [Compound 3639] ({CH2CO}-NY(Carboxymethyl)D[Phe(3-Me)]Y(Carboxymethyl)[Bip]Y(Carboxymethyl)[Orn][dL][Dab][Cha][Thr(3ξ)]SC[Dab][Aun]-OH; thioether N-14)
0.011 µM | Cc1cccc(C[C@@H]2NC(=O)[C@H](CC(=O)O)NC(=O)[C@H](Cc3ccc(O)cc3)NC(=O)[C@@H](CCCNC(=N)N)NC(=O)CSC[C@@H](C(=O)N[C@@H](CCN)C(=O)NCCCCCCCCCCC(=O)O)NC(=O)[C@H](CO)NC(=O)[C@H](C(C)(C)O)NC(=O)[C@H](CC3CCCCC3)NC(=O)[C@H](CCN)NC(=O)[C@@H](CC(C)C)NC(=O)[C@H](CCCN)NC(=O)[C@H](Cc3ccc(OCC(=O)O)cc3)NC(=O)[C@H](Cc3ccc(-c4ccccc4)cc3)NC(=O)[C@H](Cc3ccc(OCC(=O)O)cc3)NC2=O)c1 [Compound 3640] ({CH2CO}-[dR]YD[Phe(3-Me)]Y(Carboxymethyl)[Bip]Y(Carboxymethyl)[Orn][dL][Dab][Cha][Val(3-OH)]SC[Dab][Aun]-OH; thioether N-14)
0.0074 µM | Cc1cccc(C[C@@H]2NC(=O)[C@H](CC(=O)O)NC(=O)[C@H](Cc3ccc(OCC(=O)O)cc3)NC(=O)[C@H](CCN)NC(=O)CSC[C@@H](C(=O)N[C@@H](CCN)C(=O)NCCCCCCCCCCC(=O)O)NC(=O)[C@H](CO)NC(=O)[C@H](C(C)(C)O)NC(=O)[C@H](CC3CCCCC3)NC(=O)[C@H](Cc3cnc[nH]3)NC(=O)[C@@H](CC(C)C)NC(=O)[C@H](CCCN)NC(=O)[C@H](Cc3ccc(OCC(=O)O)cc3)NC(=O)[C@H](Cc3ccc(-c4ccccc4)cc3)NC(=O)[C@H](Cc3ccc(OCC(=O)O)cc3)NC2=O)c1 [Compound 3641] ({CH2CO}-[Dab]Y(Carboxymethyl)D[Phe(3-Me)]Y(Carboxymethyl)[Bip]Y(Carboxymethyl)[Orn][dL]H[Cha][Val(3-OH)]SC[Dab][Aun]-OH; thioether N-14)
0.0068 µM | Cc1cccc(C[C@@H]2NC(=O)[C@H](CC(=O)O)NC(=O)[C@H](Cc3ccc(OCC(=O)O)cc3)NC(=O)[C@H](CCN)NC(=O)CSC[C@@H](C(=O)N[C@@H](CC(N)=O)C(=O)NCCCCCCCCCCC(=O)O)NC(=O)[C@H](Cc3cnc[nH]3)NC(=O)[C@H](C(C)O)NC(=O)[C@H](CC3CCCCC3)NC(=O)[C@H](CCN)NC(=O)[C@@H](CC(C)C)NC(=O)[C@H](CCCN)NC(=O)[C@H](Cc3ccc(OCC(=O)O)cc3)NC(=O)[C@H](Cc3ccc(-c4ccccc4)cc3)NC(=O)[C@H](Cc3ccc(OCC(=O)O)cc3)NC2=O)c1 (stereo partly drawn) [Compound 3642] ({CH2CO}-[Dab]Y(Carboxymethyl)D[Phe(3-Me)]Y(Carboxymethyl)[Bip]Y(Carboxymethyl)[Orn][dL][Dab][Cha][Thr(3ξ)]HCN[Aun]-OH; thioether N-14)
0.0188 µM | CC(=O)NCCCC[C@@H]1NC(=O)[C@H](Cc2ccc(-c3ccccc3)cc2)NC(=O)[C@H](Cc2ccc(OCC(=O)O)cc2)NC(=O)[C@H](Cc2cccc(C)c2)NC(=O)[C@H](CC(=O)O)NC(=O)[C@H](Cc2ccc(OCC(=O)O)cc2)NC(=O)[C@H](CCN)NC(=O)CSC[C@@H](C(=O)N[C@@H](CCN)C(=O)N[C@@H](CO)C(=O)NCCCCCCCCCCC(=O)O)NC(=O)[C@H](CO)NC(=O)[C@H](C(C)(C)O)NC(=O)[C@H](CC2CCCCC2)NC(=O)[C@H](CCN)NC(=O)[C@@H](CC(C)C)NC(=O)[C@H](CCCN)NC1=O [Compound 3644] ({CH2CO}-[Dab]Y(Carboxymethyl)D[Phe(3-Me)]Y(Carboxymethyl)[Bip]K(Ac)[Orn][dL][Dab][Cha][Val(3-OH)]SC[Dab]S[Aun]-OH; thioether N-14)
0.0075 µM | CC(C)C[C@H]1NC(=O)[C@H](CCCN)NC(=O)[C@H](C(C)C)NC(=O)[C@H](Cc2ccc(-c3ccccc3)cc2)NC(=O)[C@H](C(C)C)NC(=O)[C@H](Cc2c[nH]c3ccccc23)NC(=O)[C@H](CC(=O)O)NC(=O)[C@H](Cc2ccc(OCC(=O)O)cc2)NC(=O)[C@H](CN)NC(=O)CSC[C@@H](C(=O)N[C@@H](CCN)C(=O)NCCOCCOCC(=O)N[C@@H](CCC(=O)NCCCCCCCCCCC(=O)O)C(=O)O)NC(=O)[C@H](CN)NC(=O)[C@H](C(C)O)NC(=O)[C@H](CC2CCCCC2)NC(=O)[C@H](CCN)NC1=O (stereo partly drawn) [Compound 3649] ({CH2CO}-[Dap]Y(Carboxymethyl)DWV[Bip]V[Orn][dL][Dab][Cha][Thr(3ξ)][Dap]C[Dab][AEEA][γGlu][Aun]-OH; thioether N-14)
